Data taken from publication PMC11851430, “Workflow for E3 Ligase Ligand Validation for PROTAC Development” (ACS Chemical Biology, 2025).

How the values were obtained:
Experiment in all cases: DSF assay
Assay type in all cases: binding
Details in all cases: 20 µM compound
RIOK2A = molecular target: T1, RIOK2A (Homo sapiens, UniProt Q9BVS4)
T1 construct: purchased in-house DSF panel (SGC-style construct names; the trailing A/B is a construct suffix)

CASKA = molecular target: T2, CASKA (Homo sapiens, UniProt O14936)
T2 construct: purchased in-house DSF panel (SGC-style construct names; the trailing A/B is a construct suffix)
T2 sequence (O14936 1-337): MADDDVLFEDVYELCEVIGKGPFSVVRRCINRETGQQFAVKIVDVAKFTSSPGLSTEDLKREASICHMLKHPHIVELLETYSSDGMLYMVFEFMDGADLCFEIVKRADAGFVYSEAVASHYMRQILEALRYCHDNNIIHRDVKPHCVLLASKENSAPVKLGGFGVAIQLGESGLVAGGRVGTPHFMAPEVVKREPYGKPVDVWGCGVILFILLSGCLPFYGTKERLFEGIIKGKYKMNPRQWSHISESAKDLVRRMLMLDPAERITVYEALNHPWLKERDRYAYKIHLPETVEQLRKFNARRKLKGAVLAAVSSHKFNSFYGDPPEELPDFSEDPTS

PDK4A = molecular target: T3, PDK4A (Homo sapiens, UniProt Q16654)
T3 construct: purchased in-house DSF panel (SGC-style construct names; the trailing A/B is a construct suffix)
T3 sequence (Q16654 whole entry): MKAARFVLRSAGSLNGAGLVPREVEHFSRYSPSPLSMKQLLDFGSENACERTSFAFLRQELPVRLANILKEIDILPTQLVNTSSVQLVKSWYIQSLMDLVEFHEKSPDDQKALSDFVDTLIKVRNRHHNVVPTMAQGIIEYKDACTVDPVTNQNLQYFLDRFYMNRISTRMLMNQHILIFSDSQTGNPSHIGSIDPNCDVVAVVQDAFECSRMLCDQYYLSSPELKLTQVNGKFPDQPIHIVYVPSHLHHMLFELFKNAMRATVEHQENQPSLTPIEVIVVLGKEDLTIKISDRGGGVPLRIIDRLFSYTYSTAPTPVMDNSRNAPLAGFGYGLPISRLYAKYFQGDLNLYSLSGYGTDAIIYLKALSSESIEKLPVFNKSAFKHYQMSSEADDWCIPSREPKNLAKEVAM

WNK1A = molecular target: T4, WNK1A (Homo sapiens, UniProt Q9H4A3)
T4 construct: purchased in-house DSF panel (SGC-style construct names; the trailing A/B is a construct suffix)
T4 sequence (Q9H4A3 206-483): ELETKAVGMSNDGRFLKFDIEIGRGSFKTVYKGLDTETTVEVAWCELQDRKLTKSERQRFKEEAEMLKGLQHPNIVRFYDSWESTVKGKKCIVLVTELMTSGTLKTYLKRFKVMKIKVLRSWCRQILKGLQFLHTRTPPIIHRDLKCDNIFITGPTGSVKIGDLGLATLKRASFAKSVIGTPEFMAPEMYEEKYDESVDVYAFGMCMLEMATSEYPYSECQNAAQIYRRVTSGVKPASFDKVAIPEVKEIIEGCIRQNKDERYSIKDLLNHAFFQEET

CAMK4A = molecular target: T5, CAMK4A (Homo sapiens, UniProt Q16566)
T5 construct: purchased in-house DSF panel (SGC-style construct names; the trailing A/B is a construct suffix)
T5 sequence (Q16566 1-473): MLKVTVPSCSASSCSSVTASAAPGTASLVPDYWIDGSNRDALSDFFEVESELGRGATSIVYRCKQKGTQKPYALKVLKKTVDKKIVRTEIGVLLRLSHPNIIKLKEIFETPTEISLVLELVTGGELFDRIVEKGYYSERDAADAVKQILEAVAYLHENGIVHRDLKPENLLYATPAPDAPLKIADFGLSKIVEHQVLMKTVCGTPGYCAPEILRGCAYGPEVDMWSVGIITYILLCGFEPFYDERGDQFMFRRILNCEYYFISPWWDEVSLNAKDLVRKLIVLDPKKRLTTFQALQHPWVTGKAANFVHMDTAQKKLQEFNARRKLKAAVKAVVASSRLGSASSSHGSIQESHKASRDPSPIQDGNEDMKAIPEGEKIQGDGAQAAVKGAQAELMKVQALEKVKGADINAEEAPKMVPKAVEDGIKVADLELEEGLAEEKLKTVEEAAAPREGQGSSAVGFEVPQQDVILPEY

CAMK2BA = molecular target: T6, CAMK2BA (Homo sapiens, UniProt Q13554)
T6 construct: purchased in-house DSF panel (SGC-style construct names; the trailing A/B is a construct suffix)
T6 sequence (Q13554 11-303): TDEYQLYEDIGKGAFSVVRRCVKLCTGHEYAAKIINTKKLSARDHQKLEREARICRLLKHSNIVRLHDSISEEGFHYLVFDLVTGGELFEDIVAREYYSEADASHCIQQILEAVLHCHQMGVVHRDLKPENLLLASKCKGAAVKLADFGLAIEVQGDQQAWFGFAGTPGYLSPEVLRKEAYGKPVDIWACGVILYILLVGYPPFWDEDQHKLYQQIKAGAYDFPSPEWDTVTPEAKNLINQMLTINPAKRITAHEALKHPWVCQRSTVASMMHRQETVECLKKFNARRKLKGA

DAPK1A = molecular target: T7, DAPK1A (Homo sapiens, UniProt P53355)
T7 construct: purchased in-house DSF panel (SGC-style construct names; the trailing A/B is a construct suffix)
T7 sequence (P53355 1-285): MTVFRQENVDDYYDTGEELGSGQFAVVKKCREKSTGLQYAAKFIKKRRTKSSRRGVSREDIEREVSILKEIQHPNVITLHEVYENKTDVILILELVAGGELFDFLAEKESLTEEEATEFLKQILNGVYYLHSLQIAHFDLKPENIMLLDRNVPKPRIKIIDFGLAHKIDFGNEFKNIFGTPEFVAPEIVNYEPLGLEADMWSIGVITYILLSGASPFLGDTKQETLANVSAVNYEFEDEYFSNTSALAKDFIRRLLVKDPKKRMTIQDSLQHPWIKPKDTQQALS

GSG2A = molecular target: T8, GSG2A (Homo sapiens, UniProt Q8TF76)
T8 construct: purchased in-house DSF panel (SGC-style construct names; the trailing A/B is a construct suffix)
T8 sequence (Q8TF76 465-798): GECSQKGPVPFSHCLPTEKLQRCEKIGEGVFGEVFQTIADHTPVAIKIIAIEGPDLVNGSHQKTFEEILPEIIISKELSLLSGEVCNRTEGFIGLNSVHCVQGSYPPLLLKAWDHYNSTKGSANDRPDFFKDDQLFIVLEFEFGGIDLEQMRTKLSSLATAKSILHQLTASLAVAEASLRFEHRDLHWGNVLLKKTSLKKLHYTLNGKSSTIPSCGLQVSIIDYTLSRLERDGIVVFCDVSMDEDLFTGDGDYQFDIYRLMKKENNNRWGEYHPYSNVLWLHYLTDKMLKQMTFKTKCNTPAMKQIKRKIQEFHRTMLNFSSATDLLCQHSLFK

CLK1 = molecular target: T9, CLK1 (Homo sapiens, UniProt P49759)
T9 construct: purchased in-house DSF panel (SGC-style construct names; the trailing A/B is a construct suffix)
T9 sequence (P49759 148-484): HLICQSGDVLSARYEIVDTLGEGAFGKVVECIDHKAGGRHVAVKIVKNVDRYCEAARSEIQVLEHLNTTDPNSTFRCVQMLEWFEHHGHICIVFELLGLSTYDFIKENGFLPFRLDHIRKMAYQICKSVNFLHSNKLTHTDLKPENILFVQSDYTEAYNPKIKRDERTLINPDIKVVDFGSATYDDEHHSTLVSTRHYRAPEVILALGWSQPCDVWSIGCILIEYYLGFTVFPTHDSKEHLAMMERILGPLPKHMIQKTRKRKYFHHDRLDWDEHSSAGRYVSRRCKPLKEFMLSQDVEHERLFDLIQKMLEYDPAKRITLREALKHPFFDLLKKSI

MAPK15A = molecular target: T10, MAPK15A (Homo sapiens, UniProt Q8TD08)
T10 construct: purchased in-house DSF panel (SGC-style construct names; the trailing A/B is a construct suffix)
T10 sequence (Q8TD08 1-345): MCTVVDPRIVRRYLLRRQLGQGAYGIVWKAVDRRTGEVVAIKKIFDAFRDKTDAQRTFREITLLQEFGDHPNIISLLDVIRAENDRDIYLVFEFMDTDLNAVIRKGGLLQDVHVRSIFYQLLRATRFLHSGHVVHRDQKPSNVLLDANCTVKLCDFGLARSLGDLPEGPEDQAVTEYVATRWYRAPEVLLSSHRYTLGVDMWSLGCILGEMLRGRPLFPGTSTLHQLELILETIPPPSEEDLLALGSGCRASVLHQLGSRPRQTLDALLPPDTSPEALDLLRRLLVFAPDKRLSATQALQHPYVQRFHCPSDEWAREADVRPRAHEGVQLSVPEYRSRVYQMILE

MAPK1A = molecular target: T11, MAPK1A (Homo sapiens, UniProt P28482)
T11 construct: purchased in-house DSF panel (SGC-style construct names; the trailing A/B is a construct suffix)
T11 sequence (P28482 whole entry): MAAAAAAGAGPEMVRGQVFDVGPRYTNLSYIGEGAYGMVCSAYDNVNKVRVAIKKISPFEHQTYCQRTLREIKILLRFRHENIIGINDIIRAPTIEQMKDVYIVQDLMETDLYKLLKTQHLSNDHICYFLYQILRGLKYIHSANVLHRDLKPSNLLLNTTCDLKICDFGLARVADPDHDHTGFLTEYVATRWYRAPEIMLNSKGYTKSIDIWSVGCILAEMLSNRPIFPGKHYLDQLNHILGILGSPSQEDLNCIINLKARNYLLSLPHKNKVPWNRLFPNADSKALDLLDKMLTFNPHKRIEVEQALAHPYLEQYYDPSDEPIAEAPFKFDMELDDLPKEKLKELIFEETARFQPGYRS

OSR1A = molecular target: T12, OSR1A (Homo sapiens, UniProt O95747)
T12 construct: purchased in-house DSF panel (SGC-style construct names; the trailing A/B is a construct suffix)
T12 sequence (O95747 17-291): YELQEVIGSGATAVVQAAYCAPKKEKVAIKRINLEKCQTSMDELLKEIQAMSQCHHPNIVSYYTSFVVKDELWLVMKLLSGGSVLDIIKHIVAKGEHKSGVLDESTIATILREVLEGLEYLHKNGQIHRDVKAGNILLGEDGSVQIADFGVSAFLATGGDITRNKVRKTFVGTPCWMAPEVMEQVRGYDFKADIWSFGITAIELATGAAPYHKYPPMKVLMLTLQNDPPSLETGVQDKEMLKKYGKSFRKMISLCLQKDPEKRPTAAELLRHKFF

BRPF1A = system: BRPF1A

T1 sequence (Q9BVS4 whole entry): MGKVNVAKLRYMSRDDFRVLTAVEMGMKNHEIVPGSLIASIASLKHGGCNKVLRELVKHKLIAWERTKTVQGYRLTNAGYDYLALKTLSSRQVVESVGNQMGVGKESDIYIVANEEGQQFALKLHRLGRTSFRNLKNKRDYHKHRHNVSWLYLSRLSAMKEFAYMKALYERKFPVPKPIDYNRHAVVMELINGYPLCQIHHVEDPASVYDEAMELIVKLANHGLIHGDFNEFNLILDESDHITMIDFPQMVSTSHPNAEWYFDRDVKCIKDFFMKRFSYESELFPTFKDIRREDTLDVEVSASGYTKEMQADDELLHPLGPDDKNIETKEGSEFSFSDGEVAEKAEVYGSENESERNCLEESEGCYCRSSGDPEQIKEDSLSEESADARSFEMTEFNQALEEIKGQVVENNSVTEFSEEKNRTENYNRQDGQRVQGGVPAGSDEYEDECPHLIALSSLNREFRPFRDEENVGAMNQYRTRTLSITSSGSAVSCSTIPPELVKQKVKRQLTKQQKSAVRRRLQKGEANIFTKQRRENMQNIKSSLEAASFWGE

| ΔTm at 20 µM (RIOK2A) [°C] | ΔTm at 20 µM (CASKA) [°C] | ΔTm at 20 µM (PDK4A) [°C] | ΔTm at 20 µM (WNK1A) [°C] | ΔTm at 20 µM (CAMK4A) [°C] | ΔTm at 20 µM (CAMK2BA) [°C] | ΔTm at 20 µM (DAPK1A) [°C] | ΔTm at 20 µM (GSG2A) [°C] | ΔTm at 20 µM (CLK1) [°C] | ΔTm at 20 µM (MAPK1A) [°C] | ΔTm at 20 µM (OSR1A) [°C] | SMILES | ΔTm at 20 µM (MAPK15A) [°C] | ΔTm (BRPF1A) [°C] |
| --- | --- | --- | --- | --- | --- | --- | --- | --- | --- | --- | --- | --- | --- |
| 6.13 | -0.0121 | 1.49 | 1.05 | 2.43 | -0.09 | 2.7 | 1.36 | 12 | 3.2 | 3.71 | CC(C)(C)OC(=O)NCCOCCOCCOCCOCCC(=O)N1CCN(c2cc(Nc3cc(C4CC4)[nH]n3)nc(Nc3ccc(CC#N)cc3)n2)CC1 [4-L] | 16.4 | 1.15 |
| 5.03 | 1.29 | 0.13 | 0.56 | 5.11 | 0.97 | 1.49 | 1.49 | 13.6 | 4.69 | 3.94 | CC(C)(C)OC(=O)NCCCOCCOCCOCCCNC(=O)c1cc(Nc2cc(C3CC3)[nH]n2)nc(Nc2ccc(CC#N)cc2)n1 [5-L] | 17 | -0.68 |
| 6.53 | 1.91 | 0.03 | 0.55 | 3.64 | 1.15 | 3.22 | 2.54 | 14.4 | 4.85 | 3.5 | CCOC(=O)c1cc(Nc2cc(C3CC3)[nH]n2)nc(Nc2ccc(CC#N)cc2)n1 [compound 5] | 14.8 | -0.64 |
